As a reminder, the IC50 is the concentration that inhibits the measured activity by half.

In test [1] the target is T1, rat aortic rings (ETA receptors) (Rattus norvegicus, UniProt P26684).
T1 construct: from tissue; host or cells: thoracic aorta rings of adult Wistar rats, endothelium removed
T1 sequence (P26684 21-426): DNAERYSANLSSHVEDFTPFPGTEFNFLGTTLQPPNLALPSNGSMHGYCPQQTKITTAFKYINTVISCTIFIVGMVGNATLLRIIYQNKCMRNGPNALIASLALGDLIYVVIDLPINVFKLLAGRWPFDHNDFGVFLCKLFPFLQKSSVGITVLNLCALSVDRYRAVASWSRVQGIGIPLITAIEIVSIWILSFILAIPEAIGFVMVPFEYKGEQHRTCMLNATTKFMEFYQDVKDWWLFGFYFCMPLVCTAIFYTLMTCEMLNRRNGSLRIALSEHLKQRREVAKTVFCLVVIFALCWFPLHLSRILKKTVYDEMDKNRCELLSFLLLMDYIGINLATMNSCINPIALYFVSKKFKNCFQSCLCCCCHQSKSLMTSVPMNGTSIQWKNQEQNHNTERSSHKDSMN
In words: Inhibition of endothelin-1-induced contractions on isolated rat aortic rings. Format: cell-based. The settings on record: read-out: pA2 (aortic rings) (converted). The procedure:
(§1) 2) Inhibition of Endothelin-Induced Contractions on Isolated Rat Aortic Rings (ETA Receptors) and Rat Tracheal Rings (ETB Receptors):
(§2) Adult Wistar rats were anesthetized and exsanguinated. The thoracic aorta or trachea were excised, dissected and cut in 3–5 mm rings. The endothelium/epithelium was removed by gentle rubbing of the intimal surface. […] The rings were connected to force transducers and isometric tension was recorded (EMKA Technologies SA, Paris, France). The rings were stretched to a resting tension of 3 g (aorta) or 2 g (trachea). […] The functional inhibitory potency of the test compound was assessed by calculating the concentration ratio, i.e. the shift to the right of the EC50 induced by different concentrations of test compound. EC50 is the concentration of endothelin needed to get a half-maximal contraction, pA2 is the negative logarithm of the antagonist concentration which induces a two-fold shift in the EC50 value.

In test [2] the target is T2, human recombinant ETA receptors (Homo sapiens, UniProt P25101).
T2 construct: expressed in transfected cells; host or cells: CHO cells
T2 sequence (P25101 21-427): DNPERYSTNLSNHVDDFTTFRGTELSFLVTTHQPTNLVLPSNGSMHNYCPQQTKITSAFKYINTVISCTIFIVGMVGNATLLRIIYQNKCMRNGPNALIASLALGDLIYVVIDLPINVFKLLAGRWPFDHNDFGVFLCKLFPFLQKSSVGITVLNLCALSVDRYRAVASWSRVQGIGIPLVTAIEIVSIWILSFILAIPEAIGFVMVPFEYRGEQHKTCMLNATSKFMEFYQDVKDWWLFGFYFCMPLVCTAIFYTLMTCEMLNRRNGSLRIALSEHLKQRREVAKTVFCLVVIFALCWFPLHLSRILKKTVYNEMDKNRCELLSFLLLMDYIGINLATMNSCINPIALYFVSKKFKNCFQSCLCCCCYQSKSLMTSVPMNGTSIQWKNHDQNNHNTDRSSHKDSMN
In words: Inhibition of [125I]ET-1 binding to membranes from CHO cells carrying human ETA receptors. As for the experimental part:
(§3) 1) Inhibition of Endothelin Binding to Membranes from CHO Cells Carrying Human ET Receptors:
(§4) For competition binding studies, membranes of CHO cells expressing human recombinant ETA or ETB receptors were used.
(§5) The assay was performed in 200 uL 50 mM Tris/HCl buffer, pH 7.4, including 25 mM MnCl2, 1 mM EDTA and 0.5% (w/v) BSA in polypropylene microtiter plates. […] After 2 h, the membranes were filtered on filterplates containing GF/C filters (Unifilterplates from Can berra Packard S. A. Zürich, Switzerland). To each well, 50 uL of scintillation cocktail was added (MicroScint 20, Can berra Packard S. A. Zürich, Switzerland) and the filter plates counted in a microplate counter (TopCount, Can berra Packard S. A. Zürich, Switzerland).
(§6) All the test compounds were dissolved, diluted and added in DMSO.

In test [3] the target is T3, human recombinant ETB receptors (Homo sapiens, UniProt P24530).
T3 construct: expressed in transfected cells; host or cells: CHO cells
T3 sequence (P24530 27-442): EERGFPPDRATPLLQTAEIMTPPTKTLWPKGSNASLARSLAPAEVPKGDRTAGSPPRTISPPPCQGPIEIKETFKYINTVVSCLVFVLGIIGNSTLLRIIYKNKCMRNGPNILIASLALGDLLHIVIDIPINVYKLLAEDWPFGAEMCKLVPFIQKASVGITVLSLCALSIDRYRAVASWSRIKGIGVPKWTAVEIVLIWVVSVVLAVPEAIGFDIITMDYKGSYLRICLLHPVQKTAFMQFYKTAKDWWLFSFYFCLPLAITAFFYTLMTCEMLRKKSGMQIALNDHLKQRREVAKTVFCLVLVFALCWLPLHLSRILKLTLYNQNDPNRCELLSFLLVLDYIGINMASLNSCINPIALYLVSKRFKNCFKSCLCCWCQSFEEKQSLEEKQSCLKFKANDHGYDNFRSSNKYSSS
Put plainly: Inhibition of [125I]ET-1 binding to membranes from CHO cells carrying human ETB receptors. As for the experimental part:
as §3, §4, §5, §6

Test [4] addresses T4, rat tracheal rings (ETB receptors) (Rattus norvegicus, UniProt P21451).
T4 construct: from tissue; host or cells: tracheal rings of adult Wistar rats, epithelium removed
T4 sequence (P21451 27-442): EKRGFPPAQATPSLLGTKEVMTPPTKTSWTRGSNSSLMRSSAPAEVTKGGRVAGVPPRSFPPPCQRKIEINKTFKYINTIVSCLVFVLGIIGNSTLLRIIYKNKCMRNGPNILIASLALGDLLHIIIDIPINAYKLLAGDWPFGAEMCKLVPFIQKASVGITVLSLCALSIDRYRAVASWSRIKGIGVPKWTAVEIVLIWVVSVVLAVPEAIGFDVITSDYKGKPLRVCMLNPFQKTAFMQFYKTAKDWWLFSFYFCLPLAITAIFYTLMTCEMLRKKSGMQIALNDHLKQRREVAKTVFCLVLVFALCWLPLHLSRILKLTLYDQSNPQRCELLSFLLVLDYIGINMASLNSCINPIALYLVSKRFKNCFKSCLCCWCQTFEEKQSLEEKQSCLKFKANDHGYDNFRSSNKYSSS
Put plainly: Inhibition of sarafotoxin S6c-induced contractions on isolated rat tracheal rings. Format: cell-based. As for the experimental part:
as §1, §2

Bounds are passed on as bounds.

Take `COc1cnc(OCCOc2nc(-c3cnccn3)nc(NS(=O)(=O)CCc3ccccc3)c2Oc2ccccc2OC)nc1` [Example 34]: the Kb in test [1] is 21.4 nM.
Turning to `O=S(=O)(CCc1cccs1)Nc1ncnc(OCCOc2ncc(Br)cn2)c1-c1ccc(Cl)cc1` [Example 52], the figures for the IC50 in test [2] and in test [3] were 5 nM and 1770 nM, respectively.
The corresponding values for `Cc1ccc(-c2c(NS(=O)(=O)CCc3cccs3)ncnc2OCCOc2ncc(Br)cn2)cc1` [Example 49] are 4 nM and 2490 nM.
Take `COc1ccccc1Oc1c(NS(=O)(=O)CCc2ccccc2)nc(N2CCOCC2)nc1OCCOc1ncc(SC)cn1` [Example 39]: the values for the IC50 in test [2] and in test [3] were 3 nM and 261 nM, respectively.
Regarding `COc1ccccc1Oc1c(NS(=O)(=O)CCc2ccccn2)nc(-c2ccncc2)nc1OCCOc1ncc(Br)cn1` [Example 61], the IC50 in test [2] turned out to be 10 nM; in test [3] it was 1140 nM. In addition, the Kb was 85.1 nM in test [4] and 14.8 nM in test [1].
Take `Cc1ccc(-c2c(NS(=O)(=O)CCc3ccccc3)nc(-c3ncccn3)nc2OCCOc2ncc(Cl)cn2)cc1` [Example 13]: the values for the IC50 in test [2] and in test [3] were 4 nM and 3680 nM, respectively.
The corresponding values for `Cc1ccc(-c2c(NS(=O)(=O)CCc3ccccc3)ncnc2OCCOc2ncc(Br)cn2)cc1C` [Example 19] are 3 nM and 1930 nM.
The corresponding values for `Cc1ccc(-c2c(NS(=O)(=O)CCc3ccccc3)nc(-c3ccncc3)nc2OCCOc2ncc(Br)cn2)cc1` [Example 10] are 9 nM and 2410 nM.
In the case of `COc1cnc(OCCOc2nc(-c3ncccn3)nc(NS(=O)(=O)CCc3ccccc3)c2Oc2ccccc2OC)nc1` [Example 29], the IC50 in test [2] came out at 10 nM.
On to `Cc1ccc(-c2c(NS(=O)(=O)CCc3ccccc3)ncnc2OCCOc2ncccn2)cc1` [Example 1, 2-phenyl-ethanesulfonic acid {6-[2-(pyrimidin-2-yloxy)-ethoxy]-5-p-tolyl-pyrimidin-4-yl}-amide], for which the IC50 in test [2] stood at 27 nM; in test [3], 6650 nM.
With `Cc1ccc(-c2c(NS(=O)(=O)CCc3ccccc3)ncnc2OCCOc2ncc(C)cn2)cc1` [Example 8], in test [1], the Kb was 37.2 nM.
For the compound `COc1cccc(Oc2c(NS(=O)(=O)CCc3ccccc3)ncnc2OCCOc2ncc(Br)cn2)c1` [Example 46], the IC50 is 7 nM in test [2] and 2360 nM in test [3].
Regarding `Cc1ccc(-c2c(NS(=O)(=O)CCc3ccccc3)nc(-c3ncccn3)nc2OCCOc2ncc(Br)cn2)cc1` [Example 14], the IC50 in test [2] is 6 nM; in test [3], 2230 nM.
As to `Cc1ccc(-c2c(NS(=O)(=O)CCCc3ccccc3)ncnc2OCCOc2ncc(Br)cn2)cc1` [Example 75], the Kb in test [1] was 17.4 nM.
On to `COc1cnc(OCCOc2ncnc(NS(=O)(=O)CCc3ccccc3)c2Oc2cccc(OC)c2)nc1` [Example 47], for which the half-inhibitory concentration (IC50) worked out at 24 nM in test [2] and 2720 nM in test [3].
On the same counts, the results for `Cc1ccc(-c2c(NS(=O)(=O)CCc3ccccc3)ncnc2OCCOc2ccc(C(F)(F)F)cn2)cc1` [Example 2, 2-phenyl-ethanesulfonic acid {5-p-tolyl-6-[2-(5-trifluoromethyl-pyridin-2-yloxy)-ethoxy]-pyrimidin-4-yl}-amide] are 20 nM and 899 nM.
Turning to `Cc1ccc(-c2c(NS(=O)(=O)CCc3ccccc3)ncnc2OCCOc2ncc(Br)cn2)cc1` [Example 7], the concentration for half-maximal inhibition (IC50) in test [2] stood at 4 nM; in test [3], 3310 nM. Further, the results for the Kb in test [4] and in test [1] were 85.1 nM and 1.48 nM, respectively.
As to `COc1ccccc1Oc1c(NS(=O)(=O)CCc2ccccc2)nc(-c2ncccn2)nc1OCCOc1ncc(Br)cn1` [Example 5, 2phenylethanesulfonic acid {5-(2-methoxy-phenoxy)-6-[2-(5-bromopyrimidin-2-yloxy)-ethoxy]-2-(2-pyrimidinyl)-4-pyrimidinyl}-amide], the IC50 in test [2] is 3 nM. Also, the Kb in test [1] was 4.17 nM.
On to `COc1ccccc1Oc1c(NS(=O)(=O)Cc2ccc(C)cc2)nc(-c2ccncc2)nc1OCCOc1ncc(Br)cn1` [Example 71], for which the IC50 in test [2] is 115 nM; in test [3], > 10000 nM.

The values above are taken from patent US7091201B2, “Arylalkane-sulfonamides having endothelin-antagonist activity” (Actelion Pharmaceuticals Ltd., priority 2000, dated 2006).
